For 17 compounds, EC50 results are on record in patent publication US20190010139A1 (priority 2015, published 2019).

SMILES strings stand for the structures.

The subject of the first test is NL-RLuc virus. Put plainly: Inhibition of HIV replication (NL-RLuc luciferase reporter virus in MT-2 cells). The format is cell-based. The following applies: Human immunodeficiency virus 1, MT2, 120 h, read-out: Activity. From the text:
Inhibition of HIV Replication:
A recombinant NL-RLuc proviral clone was constructed in which a section of the nef gene from NL4-3 was replaced with the Renilla Luciferase gene. This virus is fully infectious and can undergo multiple cycles of replication in cell culture. In addition, the luciferous reporter provides a simple and easy method for quantitating the extent of virus growth and consequently, the antiviral activity of test compounds. The plasmid pNLRLuc contains the proviral NL-Rluc DNA cloned into pUC 18 at the PvuII site. The NL-RLuc virus was prepared by transfection of 293T cells with the plasmid pNLRLuc. Transfections were performed using the LipofectAMINE PLUS kit from Invitrogen (Carlsbad, Calif.) according to the manufacturer and the virus generated was titered in MT-2 cells. For susceptibility analyses, the titrated virus was used to infect MT-2 cells in the presence of compound, and after 5 days of incubation, cells were processed and quantitated for virus growth by the amount of expressed luciferase. Assay media was RPMI 1640 supplemented with 10% heat inactivated fetal bovine serum (FBS), 100 units/ml penicillin G/100 units/ml streptomycin, 10 mM HEPES buffer pH 7.55 and 2 mM L-glutamine. The results from at least 2 experiments were used to calculate the EC50 values. Luciferase was quantitated using the Dual Luciferase kit from Promega (Madison, Wis.). Susceptibility of viruses to compounds was determined by incubation in the presence of serial dilutions of the compound. The 50% effective concentration (EC50) was calculated by using the exponential form of the median effect equation where (Fa)=1/[1+(ED50/drug conc.)^m](Johnson V A, Byington R T. Infectivity Assay. In Techniques in HIV Research. ed. Aldovini A, Walker B D. 71-76. New York: Stockton Press.1990). Activity equal to A refers to a compound having an EC50≤100 nM, while B and C denote compounds having an EC50 between 100 nM and 1 uM (B) or >1 uM (C).
(In general: Reporter assays use an easily measured gene product as a stand-in for the process of interest.)
With `Cc1nc(CNCC2CCOCC2)c(-c2ccc(OCCc3ccc(F)cc3)cc2)c(N2CCC3(CCC3)CC2)c1[C@H](OC(C)(C)C)C(=O)O` [Example 45, (S)-2-(tert-Butoxy)-2-(5-(4-(4-fluorophenethoxy)phenyl)-2-methyl-4-(7-azaspiro[3.5]nonan-7-yl)-6-((((tetrahydro-2H-pyran-4-yl)methyl)amino)methyl)pyridin-3-yl)acetic acid], the EC50 is less than 0.1 µM.

Turning to `Cc1nc(CN(C)CC2CCOCC2)c(-c2ccc(OCCc3ccc(F)cc3)cc2)c(N2CCC3(CCC3)CC2)c1[C@H](OC(C)(C)C)C(=O)O` [Example 46, (S)-2-(tert-Butoxy)-2-(5-(4-(4-fluorophenethoxy)phenyl)-2-methyl-6-((methyl((tetrahydro-2H-pyran-4-yl)methyl)amino)methyl)-4-(7-azaspiro[3.5]nonan-7-yl)pyridin-3-yl)acetic acid], the EC50 was less than 0.1 µM.

As for `COc1ccc(NCc2nc(C)c([C@H](OC(C)(C)C)C(=O)O)c(N3CCC4(CCC4)CC3)c2-c2ccc(OCCc3ccc(F)cc3)cc2)cc1` [Example 47, (S)-2-(tert-Butoxy)-2-(5-(4-(4-fluorophenethoxy)phenyl)-6-(((4-methoxyphenyl)-amino)methyl)-2-methyl-4-(7-azaspiro[3.5]nonan-7-yl)pyridin-3-yl)acetic acid], the EC50 was less than 0.1 µM.

Take `Cc1nc(COCC2COC2)c(-c2ccc(OCCc3ccc(F)cc3)cc2)c(N2CCC3(CCC3)CC2)c1[C@H](OC(C)(C)C)C(=O)O` [Example 48, (S)-2-(tert-Butoxy)-2-(5-(4-(4-fluorophenethoxy)phenyl)-2-methyl-6-((oxetan-3-ylmethoxy)methyl)-4-(7-azaspiro[3.5]nonan-7-yl)pyridin-3-yl)acetic acid]: the EC50 was less than 0.1 µM.

Turning to `CCOCCOCc1nc(C)c([C@H](OC(C)(C)C)C(=O)O)c(N2CCC3(CCC3)CC2)c1-c1ccc(OCCc2ccc(F)cc2)cc1` [Example 49, (S)-2-(tert-Butoxy)-2-(6-((2-ethoxyethoxy)methyl)-5-(4-(4-fluoro-phenethoxy)phenyl)-2-methyl-4-(7-azaspiro[3.5]nonan-7-yl)pyridin-3-yl)acetic acid], the EC50 is less than 0.1 µM.

With `Cc1nc(CN(C)C2CCOCC2)c(-c2ccc(OCCc3ccc(F)cc3)cc2)c(N2CCC3(CCC3)CC2)c1[C@H](OC(C)(C)C)C(=O)O` [Example 50, (S)-2-(tert-Butoxy)-2-(5-(4-(4-fluorophenethoxy)phenyl)-2-methyl-6-((methyl(tetrahydro-2H-pyran-4-yl)amino)methyl)-4-(7-azaspiro[3.5]nonan-7-yl)pyridin-3-yl)acetic acid], the EC50 is less than 0.1 µM.

Consider `Cc1nc(COCC2CCOCC2)c(-c2ccc(OCCc3ccc(F)cc3)cc2)c(N2CCC3(CCC3)CC2)c1[C@H](OC(C)(C)C)C(=O)O` [Example 51, (S)-2-(tert-Butoxy)-2-(5-(4-(4-fluorophenethoxy)phenyl)-2-methyl-4-(7-azaspiro[3.5]nonan-7-yl)-6-(((tetrahydro-2H-pyran-4-yl)methoxy)methyl)pyridin-3-yl)acetic acid], for which the EC50 is less than 0.1 µM.

Turning to `Cc1nc(COC2CCOCC2)c(-c2ccc(OCCc3ccc(F)cc3)cc2)c(N2CCC3(CCC3)CC2)c1[C@H](OC(C)(C)C)C(=O)O` [Example 52, (S)-2-(tert-Butoxy)-2-(5-(4-(4-fluorophenethoxy)phenyl)-2-methyl-4-(7-azaspiro[3.5]nonan-7-yl)-6-(((tetrahydro-2H-pyran-4-yl)oxy)methyl)pyridin-3-yl)acetic acid], the EC50 was less than 0.1 µM.

As for `Cc1nc(CN2CCCCC2)c(-c2ccc(OCCc3ccc(F)cc3)cc2)c(N2CCC3(CCC3)CC2)c1[C@H](OC(C)(C)C)C(=O)O` [Example 53, (S)-2-(tert-Butoxy)-2-(5-(4-(4-fluorophenethoxy)phenyl)-2-methyl-6-(piperidin-1-ylmethyl)-4-(7-azaspiro[3.5]nonan-7-yl)pyridin-3-yl)acetic acid], the EC50 was less than 0.1 µM.

For `Cc1nc(CN2CCOCC2)c(-c2ccc(OCCc3ccc(F)cc3)cc2)c(N2CCC3(CCC3)CC2)c1[C@H](OC(C)(C)C)C(=O)O` [Example 54, (S)-2-(tert-Butoxy)-2-(5-(4-(4-fluorophenethoxy)phenyl)-2-methyl-6-(morpholinomethyl)-4-(7-azaspiro[3.5]nonan-7-yl)pyridin-3-yl)acetic acid], the EC50 was less than 0.1 µM.

`Cc1nc(CNC2CCOCC2)c(-c2ccc(OCCc3ccc(F)cc3)cc2)c(N2CCC3(CCC3)CC2)c1[C@H](OC(C)(C)C)C(=O)O` [Example 55, (S)-2-(tert-Butoxy)-2-(5-(4-(4-fluorophenethoxy)phenyl)-2-methyl-4-(7-azaspiro[3.5]nonan-7-yl)-6-(((tetrahydro-2H-pyran-4-yl)amino)methyl)pyridin-3-yl)acetic acid]: the EC50 was less than 0.1 µM.

Turning to `Cc1nc(CNCC2CCCCC2)c(-c2ccc(OCCc3ccc(F)cc3)cc2)c(N2CCC3(CCC3)CC2)c1[C@H](OC(C)(C)C)C(=O)O` [Example 56, (S)-2-(tert-Butoxy)-2-(6-(((cyclohexylmethyl)amino)methyl)-5-(4-(4-fluorophenethoxy)phenyl)-2-methyl-4-(7-azaspiro[3.5]nonan-7-yl)pyridin-3-yl)acetic acid], the EC50 is less than 0.1 µM.

As to `Cc1nc(CN2CCC3(CCC3)CC2)c(-c2ccc(OCCc3ccc(F)cc3)cc2)c(N2CCC3(CCC3)CC2)c1[C@H](OC(C)(C)C)C(=O)O` [Example 57, (S)-2-(6-(7-Azaspiro[3.5]nonan-7-ylmethyl)-5-(4-(4-fluorophenethoxy)phenyl)-2-methyl-4-(7-azaspiro[3.5]nonan-7-yl)pyridin-3-yl)-2-(tert-butoxy)acetic acid], the EC50 was less than 0.1 µM.

With `Cc1nc(COC2COC2)c(-c2ccc(OCCc3ccc(F)cc3)cc2)c(N2CCC3(CCC3)CC2)c1[C@H](OC(C)(C)C)C(=O)O` [Example 58, (S)-2-(tert-Butoxy)-2-(5-(4-(4-fluorophenethoxy)phenyl)-2-methyl-6-((oxetan-3-yloxy)methyl)-4-(7-azaspiro[3.5]nonan-7-yl)pyridin-3-yl)acetic acid], the EC50 is less than 0.1 µM.

Turning to `Cc1nc(CN(C)CC2CCCCC2)c(-c2ccc(OCCc3ccc(F)cc3)cc2)c(N2CCC3(CCC3)CC2)c1[C@H](OC(C)(C)C)C(=O)O` [Example 59, (S)-2-(tert-Butoxy)-2-(6-(((cyclohexylmethyl)(methyl)amino)methyl)-5-(4-(4-fluorophenethoxy)phenyl)-2-methyl-4-(7-azaspiro[3.5]nonan-7-yl)pyridin-3-yl)acetic acid], the EC50 was less than 0.1 µM.

On to `Cc1nc(C)c([C@H](OC(C)(C)C)C(=O)O)c(N2CCC3(CCCCC3)CC2)c1-c1ccc(OCCc2ccc(F)cc2)cc1` [Example 60, (S)-2-(tert-Butoxy)-2-(5-(4-(4-fluorophenethoxy)phenyl)-2,6-dimethyl-4-(3-azaspiro[5.5]undecan-3-yl)pyridin-3-yl)acetic acid], for which the EC50 was less than 0.1 µM.

Consider `Cc1nc(C)c([C@H](OC(C)(C)C)C(=O)O)c(N2CCC3(CCCCC3)CC2)c1-c1ccc(C(=O)NCc2ccccc2)cc1` [Example 61, (S)-2-(5-(4-(Benzylcarbamoyl)phenyl)-2,6-dimethyl-4-(3-azaspiro[5.5]undecan-3-yl)pyridin-3-yl)-2-(tert-butoxy)acetic acid], for which the EC50 was less than 0.1 µM.

The same test, now with this note: Human immunodeficiency virus 1, MT2, 120 h, read-out: EC50 μM.
Consider `CCOCCOCc1nc(C)c([C@H](OC(C)(C)C)C(=O)O)c(N2CCC3(CCC3)CC2)c1-c1ccc(OCCc2ccc(F)cc2)cc1` [Example 49, (S)-2-(tert-Butoxy)-2-(6-((2-ethoxyethoxy)methyl)-5-(4-(4-fluoro-phenethoxy)phenyl)-2-methyl-4-(7-azaspiro[3.5]nonan-7-yl)pyridin-3-yl)acetic acid], for which the EC50 came to 0.006 µM.

As to `Cc1nc(CNC2CCOCC2)c(-c2ccc(OCCc3ccc(F)cc3)cc2)c(N2CCC3(CCC3)CC2)c1[C@H](OC(C)(C)C)C(=O)O` [Example 55, (S)-2-(tert-Butoxy)-2-(5-(4-(4-fluorophenethoxy)phenyl)-2-methyl-4-(7-azaspiro[3.5]nonan-7-yl)-6-(((tetrahydro-2H-pyran-4-yl)amino)methyl)pyridin-3-yl)acetic acid], the EC50 turned out to be 0.001 µM.
